Measured values: PubChem BioAssay AID1259407 (Chemical Carcinogenesis Research Information System (CCRIS), 2018)
Activity calls are given as the source filed them. The rule behind the calls is not given here.

System: CCRIS mutagenicity, Ames/micronucleus/aberration tests
Assay: CCRIS mutagenicity studies
[1] = Test System: AMES SALMONELLA TYPHIMURIUM, Strain/Indicator: TA98, Metabolic Activation: NONE, Method: PREINCUBATION
[2] = Test System: AMES SALMONELLA TYPHIMURIUM, Strain/Indicator: TA100, Metabolic Activation: NONE, Method: PREINCUBATION

Measured: mutagenic call

O=[N+]([O-])c1ccc2ccc3nc4ccccc4c4ccc1c2c34
active: Test System: AMES SALMONELLA TYPHIMURIUM, Strain/Indicator: TA98(1,8-DNP6), Metabolic Activation: NONE active; positive | Test System: AMES SALMONELLA TYPHIMURIUM, Strain/Indicator: TA98(NR), Metabolic Activation: NONE active; positive | Test System: AMES SALMONELLA TYPHIMURIUM, Strain/Indicator: TA98, Metabolic Activation: NONE active; positive

O=C1C(=O)c2c(ccc3ccccc23)-c2ccccc21
inactive: Test System: AMES SALMONELLA TYPHIMURIUM, Strain/Indicator: TA98, Metabolic Activation: NONE, Method: STANDARD PLATE inactive; negative | Test System: AMES SALMONELLA TYPHIMURIUM, Strain/Indicator: TA100, Metabolic Activation: RAT, LIVER, S-9, AROCLOR 1254, Method: STANDARD PLATE inactive; negative

Cc1cc2ccccc2c2cc([N+](=O)[O-])c3ccccc3c12
active: [1] active; positive | Test System: AMES SALMONELLA TYPHIMURIUM, Strain/Indicator: TA98, Metabolic Activation: RAT, LIVER, S-9, Method: PREINCUBATION active; positive | [2] active; positive | Test System: AMES SALMONELLA TYPHIMURIUM, Strain/Indicator: TA100, Metabolic Activation: RAT, LIVER, S-9, Method: PREINCUBATION active; positive

Oc1ccc(Cl)cc1Cc1ccccc1
inactive: Test System: AMES SALMONELLA TYPHIMURIUM, Strain/Indicator: TA98, Metabolic Activation: HAMSTER, LIVER, S-9, AROCLOR 1254 (10%), Method: PREINCUBATION inactive; negative | [1] inactive; negative | Test System: AMES SALMONELLA TYPHIMURIUM, Strain/Indicator: TA98, Metabolic Activation: RAT, LIVER, S-9, AROCLOR 1254 (10%), Method: PREINCUBATION inactive; negative | Test System: AMES SALMONELLA TYPHIMURIUM, Strain/Indicator: TA100, Metabolic Activation: HAMSTER, LIVER, S-9, AROCLOR 1254 (10%), Method: PREINCUBATION inactive; negative | [2] inactive; negative | Test System: AMES SALMONELLA TYPHIMURIUM, Strain/Indicator: TA100, Metabolic Activation: RAT, LIVER, S-9, AROCLOR 1254 (10%), Method: PREINCUBATION inactive; negative | Test System: AMES SALMONELLA TYPHIMURIUM, Strain/Indicator: TA1535, Metabolic Activation: HAMSTER, LIVER, S-9, AROCLOR 1254 (10%), Method: PREINCUBATION inactive; negative | Test System: AMES SALMONELLA TYPHIMURIUM, Strain/Indicator: TA1535, Metabolic Activation: NONE, Method: PREINCUBATION inactive; negative | Test System: AMES SALMONELLA TYPHIMURIUM, Strain/Indicator: TA1535, Metabolic Activation: RAT, LIVER, S-9, AROCLOR 1254 (10%), Method: PREINCUBATION inactive; negative | Test System: AMES SALMONELLA TYPHIMURIUM, Strain/Indicator: TA1537, Metabolic Activation: HAMSTER, LIVER, S-9, AROCLOR 1254 (10%), Method: PREINCUBATION inactive; negative | Test System: AMES SALMONELLA TYPHIMURIUM, Strain/Indicator: TA1537, Metabolic Activation: NONE, Method: PREINCUBATION inactive; negative | Test System: AMES SALMONELLA TYPHIMURIUM, Strain/Indicator: TA1537, Metabolic Activation: RAT, LIVER, S-9, AROCLOR 1254 (10%), Method: PREINCUBATION inactive; negative

COCc1c(O)cc2c(c1O)C(=O)c1ccccc1C2=O
active: [1] active; positive | Test System: AMES SALMONELLA TYPHIMURIUM, Strain/Indicator: TA98, Metabolic Activation: RAT, LIVER, S-9, PCB, Method: PREINCUBATION active; positive | [2] active; positive | Test System: AMES SALMONELLA TYPHIMURIUM, Strain/Indicator: TA100, Metabolic Activation: RAT, LIVER, S-9, PCB, Method: PREINCUBATION active; positive

[N-]=[N+]=NCC(=O)O
inactive: Test System: AMES SALMONELLA TYPHIMURIUM, Strain/Indicator: TA1530, Metabolic Activation: NONE, Method: STANDARD PLATE inactive; negative

O=c1[nH]c(=O)n([C@@H]2O[C@H](CO)[C@@H](O)[C@@H]2O)cc1/C=C/Br
inactive: Test System: CHINESE HAMSTER V-79, Strain/Indicator: V-79/8-AZAGUANINE, Metabolic Activation: NONE inactive; negative | Test System: UDS RODENT HEPATOCYTES, Strain/Indicator: THY INCORP, Metabolic Activation: NONE inactive; negative
